Source: patent US12660819B2, “Herbicidal derivatives” (SYNGENTA CROP PROTECTION AG, priority 2020, dated 2026)

Columns and labels:
Type in all cases: in vivo
[1] = test system: Setaria faberi (SETFA); experiment: Pre-emergence Test (glasshouse, percentage damage to the plant); conditions: 1000 g/ha unless otherwise stated, five-point scale
[2] = test system: Amaranthus retoflexus (AMARE); experiment: as above; conditions: 1000 g/ha unless otherwise stated, five-point scale
[3] = test system: Abutilon theophrasti (ABUTH); experiment: Post-emergence Test (glasshouse, percentage damage to the plant); conditions: post-emergence spray, 1000 g/ha unless otherwise stated, evaluated after 13 days
In short: (§1)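 Scored 13 days after spraying as percentage plant damage in five bands (5=81–100%, 4=61–80%, 3=41–60%, 2=21–40%, 1=0–20%). Spray at 1000 g/ha unless stated, in acetone/water 50:50 plus 0.5% Tween 20, onto sown glasshouse pots (24/16 °C, 14 h light, 65% humidity).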

[4] = test system: Echinochloa crus-galli (ECHCG); experiment: as above; conditions: post-emergence spray, 1000 g/ha unless otherwise stated, evaluated after 13 days
In short: as §1

[5] = test system: Ipomoea hederacea (IPOHE); experiment: as above; conditions: post-emergence spray, 1000 g/ha unless otherwise stated, evaluated after 13 days
In short: (§2)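 Spray treatment of sown glasshouse pots at 1000 g/ha (default rate), vehicle acetone/water 50:50 plus 0.5% Tween 20. Read-out: percentage damage after 13 days, converted to a score where 5 denotes 81-100% and 1 denotes 0-20%.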

[6] = test system: Amaranthus retoflexus (AMARE); experiment: as above; conditions: post-emergence spray, 1000 g/ha unless otherwise stated, evaluated after 13 days
In short: as §1

[7] = test system: Zea mays (ZEAMX); experiment: as above; conditions: post-emergence spray, 1000 g/ha unless otherwise stated, evaluated after 13 days
In short: as §2

[8] = test system: Setaria faberi (SETFA); experiment: as above; conditions: post-emergence spray, 1000 g/ha unless otherwise stated, evaluated after 13 days
In short: as §2

[9] = test system: Ipomoea hederacea (IPOHE); experiment: Pre-emergence Test (glasshouse, percentage damage to the plant); conditions: 1000 g/ha unless otherwise stated, five-point scale
[10] = test system: Echinochloa crus-galli (ECHCG); experiment: as above; conditions: 1000 g/ha unless otherwise stated, five-point scale
[11] = test system: Abutilon theophrasti (ABUTH); experiment: as above; conditions: 1000 g/ha unless otherwise stated, five-point scale
[12] = test system: Zea mays (ZEAMX); experiment: as above; conditions: 1000 g/ha unless otherwise stated, five-point scale

CCn1c(C)c(-c2cnc(F)c(F)c2)c(=O)c(C(=O)O)c1-c1ccc(Cl)c(Cl)c1 [Compound 59, 2-(3,4-dichlorophenyl)-5-(5,6-difluoro-3-pyridyl)-1-ethyl-6-methyl-4-oxo-pyridine-3-carboxylic acid]
percentage damage to the plant, SETFA [1]: 4 (4=61-80%)
percentage damage to the plant, AMARE [2]: 1 (1=0-20%)
Post-emergence Test ABUTH, percentage damage to the plant (five-point scale) [3]: 3 (3=41-60%)
Post-emergence Test ECHCG, percentage damage to the plant (five-point scale) [4]: 3 (3=41-60%)
Post-emergence Test IPOHE, percentage damage to the plant (five-point scale) [5]: 3 (3=41-60%)
Post-emergence Test AMARE, percentage damage to the plant (five-point scale) [6]: 3 (3=41-60%)
Post-emergence Test ZEAMX, percentage damage to the plant (five-point scale) [7]: 3 (3=41-60%)
Post-emergence Test SETFA, percentage damage to the plant (five-point scale) [8]: 4 (4=61-80%)
percentage damage to the plant, IPOHE [9]: 3 (3=41-60%)
percentage damage to the plant, ECHCG [10]: 2 (2=21-40%)
percentage damage to the plant, ABUTH [11]: 3 (3=41-60%)
percentage damage to the plant, ZEAMX [12]: 1 (1=0-20%)

CCn1c(C)c(-c2cnc3c(c2)OC(F)(F)O3)c(=O)c(C(=O)O)c1-c1ccc(Cl)c(Cl)c1 [Compound 60, 2-(3,4-dichlorophenyl)-5-(2,2-difluoro-[1,3]dioxolo[4,5-b]pyridin-6-yl)-1-ethyl-6-methyl-4-oxo-pyridine-3-carboxylic acid]
percentage damage to the plant, SETFA [1]: 4 (4=61-80%)
percentage damage to the plant, AMARE [2]: 2 (2=21-40%)
Post-emergence Test ABUTH, percentage damage to the plant (five-point scale) [3]: 2 (2=21-40%)
Post-emergence Test ECHCG, percentage damage to the plant (five-point scale) [4]: 3 (3=41-60%)
Post-emergence Test IPOHE, percentage damage to the plant (five-point scale) [5]: 2 (2=21-40%)
Post-emergence Test AMARE, percentage damage to the plant (five-point scale) [6]: 2 (2=21-40%)
Post-emergence Test ZEAMX, percentage damage to the plant (five-point scale) [7]: 1 (1=0-20%)
Post-emergence Test SETFA, percentage damage to the plant (five-point scale) [8]: 4 (4=61-80%)
percentage damage to the plant, IPOHE [9]: 2 (2=21-40%)
percentage damage to the plant, ECHCG [10]: 2 (2=21-40%)
percentage damage to the plant, ABUTH [11]: 3 (3=41-60%)
percentage damage to the plant, ZEAMX [12]: 1 (1=0-20%)

CCn1c(C)c(-c2cncc(OC)c2)c(=O)c(C(=O)O)c1-c1ccc(Cl)c(Cl)c1 [Compound 61, 2-(3,4-dichlorophenyl)-1-ethyl-5-(5-methoxy-3-pyridyl)-6-methyl-4-oxo-pyridine-3-carboxylic acid]
percentage damage to the plant, SETFA [1]: 4 (4=61-80%)
percentage damage to the plant, AMARE [2]: 1 (1=0-20%)
Post-emergence Test ABUTH, percentage damage to the plant (five-point scale) [3]: 2 (2=21-40%)
Post-emergence Test ECHCG, percentage damage to the plant (five-point scale) [4]: 1 (1=0-20%)
Post-emergence Test IPOHE, percentage damage to the plant (five-point scale) [5]: 1 (1=0-20%)
Post-emergence Test AMARE, percentage damage to the plant (five-point scale) [6]: 1 (1=0-20%)
Post-emergence Test ZEAMX, percentage damage to the plant (five-point scale) [7]: 1 (1=0-20%)
Post-emergence Test SETFA, percentage damage to the plant (five-point scale) [8]: 3 (3=41-60%)
percentage damage to the plant, IPOHE [9]: 1 (1=0-20%)
percentage damage to the plant, ECHCG [10]: 1 (1=0-20%)
percentage damage to the plant, ABUTH [11]: 2 (2=21-40%)
percentage damage to the plant, ZEAMX [12]: 1 (1=0-20%)

CCn1c(C)c(-c2cc(F)cc(Cl)c2)c(=O)c(C(=O)O)c1-c1ccc(Cl)c(Cl)c1 [Compound 62, 5-(3-chloro-5-fluoro-phenyl)-2-(3,4-dichlorophenyl)-1-ethyl-6-methyl-4-oxo-pyridine-3-carboxylic acid]
percentage damage to the plant, SETFA [1]: 2 (2=21-40%)
percentage damage to the plant, AMARE [2]: 1 (1=0-20%)
Post-emergence Test ABUTH, percentage damage to the plant (five-point scale) [3]: 2 (2=21-40%)
Post-emergence Test ECHCG, percentage damage to the plant (five-point scale) [4]: 1 (1=0-20%)
Post-emergence Test IPOHE, percentage damage to the plant (five-point scale) [5]: 2 (2=21-40%)
Post-emergence Test AMARE, percentage damage to the plant (five-point scale) [6]: 1 (1=0-20%)
Post-emergence Test ZEAMX, percentage damage to the plant (five-point scale) [7]: 1 (1=0-20%)
Post-emergence Test SETFA, percentage damage to the plant (five-point scale) [8]: 1 (1=0-20%)
percentage damage to the plant, IPOHE [9]: 1 (1=0-20%)
percentage damage to the plant, ECHCG [10]: 1 (1=0-20%)
percentage damage to the plant, ABUTH [11]: 1 (1=0-20%)
percentage damage to the plant, ZEAMX [12]: 1 (1=0-20%)

CCn1c(C)c(-c2ccc(Cl)s2)c(=O)c(C(=O)O)c1-c1ccc(Cl)c(Cl)c1 [Compound 63, 5-(5-chloro-2-thienyl)-2-(3,4-dichlorophenyl)-1-ethyl-6-methyl-4-oxo-pyridine-3-carboxylic acid]
percentage damage to the plant, SETFA [1]: 3 (3=41-60%)
percentage damage to the plant, AMARE [2]: 4 (4=61-80%)
Post-emergence Test ABUTH, percentage damage to the plant (five-point scale) [3]: 3 (3=41-60%)
Post-emergence Test ECHCG, percentage damage to the plant (five-point scale) [4]: 4 (4=61-80%)
Post-emergence Test IPOHE, percentage damage to the plant (five-point scale) [5]: 3 (3=41-60%)
Post-emergence Test AMARE, percentage damage to the plant (five-point scale) [6]: 3 (3=41-60%)
Post-emergence Test ZEAMX, percentage damage to the plant (five-point scale) [7]: 3 (3=41-60%)
Post-emergence Test SETFA, percentage damage to the plant (five-point scale) [8]: 3 (3=41-60%)
percentage damage to the plant, IPOHE [9]: 2 (2=21-40%)
percentage damage to the plant, ECHCG [10]: 1 (1=0-20%)
percentage damage to the plant, ABUTH [11]: 2 (2=21-40%)
percentage damage to the plant, ZEAMX [12]: 1 (1=0-20%)

CCn1c(C)c(-c2ccc(C(F)(F)F)c(Cl)c2)c(=O)c(C(=O)O)c1-c1ccc(Cl)c(Cl)c1 [Compound 64, 5-[3-chloro-4-(trifluoromethyl)phenyl]-2-(3,4-dichlorophenyl)-1-ethyl-6-methyl-4-oxo-pyridine-3-carboxylic acid]
percentage damage to the plant, SETFA [1]: 1 (1=0-20%)
percentage damage to the plant, AMARE [2]: 2 (2=21-40%)
Post-emergence Test ABUTH, percentage damage to the plant (five-point scale) [3]: 1 (1=0-20%)
Post-emergence Test ECHCG, percentage damage to the plant (five-point scale) [4]: 1 (1=0-20%)
Post-emergence Test IPOHE, percentage damage to the plant (five-point scale) [5]: 1 (1=0-20%)
Post-emergence Test AMARE, percentage damage to the plant (five-point scale) [6]: 1 (1=0-20%)
Post-emergence Test ZEAMX, percentage damage to the plant (five-point scale) [7]: 1 (1=0-20%)
Post-emergence Test SETFA, percentage damage to the plant (five-point scale) [8]: 1 (1=0-20%)
percentage damage to the plant, IPOHE [9]: 1 (1=0-20%)
percentage damage to the plant, ECHCG [10]: 1 (1=0-20%)
percentage damage to the plant, ABUTH [11]: 1 (1=0-20%)
percentage damage to the plant, ZEAMX [12]: 1 (1=0-20%)

CCOc1cc(-c2c(C)n(CC)c(-c3ccc(Cl)c(Cl)c3)c(C(=O)O)c2=O)ccc1C(F)(F)F [Compound 65, 2-(3,4-dichlorophenyl)-5-[3-ethoxy-4-(trifluoromethyl)phenyl]-1-ethyl-6-methyl-4-oxo-pyridine-3-carboxylic acid]
percentage damage to the plant, SETFA [1]: 1 (1=0-20%)
percentage damage to the plant, AMARE [2]: 1 (1=0-20%)
Post-emergence Test ABUTH, percentage damage to the plant (five-point scale) [3]: 1 (1=0-20%)
Post-emergence Test ECHCG, percentage damage to the plant (five-point scale) [4]: 1 (1=0-20%)
Post-emergence Test IPOHE, percentage damage to the plant (five-point scale) [5]: 1 (1=0-20%)
Post-emergence Test AMARE, percentage damage to the plant (five-point scale) [6]: 1 (1=0-20%)
Post-emergence Test ZEAMX, percentage damage to the plant (five-point scale) [7]: 1 (1=0-20%)
Post-emergence Test SETFA, percentage damage to the plant (five-point scale) [8]: 1 (1=0-20%)
percentage damage to the plant, IPOHE [9]: 1 (1=0-20%)
percentage damage to the plant, ECHCG [10]: 1 (1=0-20%)
percentage damage to the plant, ABUTH [11]: 1 (1=0-20%)
percentage damage to the plant, ZEAMX [12]: 1 (1=0-20%)

CCn1c(C)c(-c2ccc(S(=O)(=O)CC)cc2)c(=O)c(C(=O)O)c1-c1ccc(Cl)c(Cl)c1 [Compound 66, 2-(3,4-dichlorophenyl)-1-ethyl-5-(4-ethylsulfonylphenyl)-6-methyl-4-oxo-pyridine-3-carboxylic acid]
percentage damage to the plant, SETFA [1]: 4 (4=61-80%)
percentage damage to the plant, AMARE [2]: 1 (1=0-20%)
Post-emergence Test ABUTH, percentage damage to the plant (five-point scale) [3]: 3 (3=41-60%)
Post-emergence Test ECHCG, percentage damage to the plant (five-point scale) [4]: 2 (2=21-40%)
Post-emergence Test IPOHE, percentage damage to the plant (five-point scale) [5]: 2 (2=21-40%)
Post-emergence Test AMARE, percentage damage to the plant (five-point scale) [6]: 1 (1=0-20%)
Post-emergence Test ZEAMX, percentage damage to the plant (five-point scale) [7]: 1 (1=0-20%)
Post-emergence Test SETFA, percentage damage to the plant (five-point scale) [8]: 3 (3=41-60%)
percentage damage to the plant, IPOHE [9]: 1 (1=0-20%)
percentage damage to the plant, ECHCG [10]: 2 (2=21-40%)
percentage damage to the plant, ABUTH [11]: 1 (1=0-20%)
percentage damage to the plant, ZEAMX [12]: 1 (1=0-20%)
